# Key:
# Type in all cases: physicochemical
# [1] = Hygroscopicity (moisture sorption analysis at 25° C.); conditions: for Hygroscopicity, weight increase: 25° C.
# Protocol: The purpose of this assay is to determine the hygroscopicity of the solid forms of the present invention under conditions normally encountered in manufacturing and storage of drug products. Moisture analysis is performed at 25° C. using a TA instrument. The following experimental conditions are used: sample size ˜3-20 mg, dry sample at 0% RH until <0.0 weight change over 10 minutes, 5-95% RH adsorption/desorption range, and 5% RH step interval. The minimum equilibration criterion is <0.01% weight change for 5 minutes.
# [2] = Formulation assessment: API powder flowability, compressibility, sticking; conditions: compared to the free base
# Protocol: (§1) The purpose of this study is to evaluate the properties of certain solid forms of the present invention with respect to the suitability for manufacturing high drug load tablets. The API flowability is measured using a United States Pharmacopeia method for bulk/tapped density and a powder rheometer. The formula contains ˜64.6 wt % Example 2, 26.4 wt % microcrystalline cellulose (diluent/binder), 5 wt % croscarmellose sodium (disintegrant), 2 wt % sodium stearyl fumarate (lubricant), and 2 wt % silicone dioxide (glidant). The components are combined and tumble blended in a single step at a 40 g scale. The resulting blend is then tested using the same bulk/tapped density and powder rheometry tests. The blend is compressed on a single-station, instrumented tablet press. The accelerated studies are comprised of prototype tablets of methanesulfonic acid dihydrate (Example 2) at a 50% free base equivalence drug load. The tablets are prepared and stored in open-dish containers to evaluate stability. Samples are stored at 40° C./11% RH, 40° C./75% RH, 50° C./22% RH, and 50° C./50% RH. At designated time points the samples are characterized by XRPD for physical form and by HPLC using the following conditions: Column Zorbax Bonus-RP, 3.5-micron, 4.6×75 mm, mobile phase A is 0.1% TFA in water, mobile phase B is 0.1% TFA in ACN, gradient is 95% A at time 0 to 23% A at 9.5 minutes-12.1 minutes, 5% A at time 13-16 minutes, and 95% A at time 16.1 to 20 minutes with a flow rate of 1.5 mL/minute, a column temperature of 30° C., UV at 227 nM, an injection volume of 5 and autosampler at ambient temperature. The drug product formulation stress study under accelerated open dish conditions for methanesulfonic acid dihydrate (Example 2) is depicted in Table 5.
# [3] = Compaction properties / tabletability (Instron compaction, tensile strength); conditions: for Tensile: 300 mg compact
# Protocol: The purpose of this study is to determine the compaction properties of certain solid forms of the present invention. The experimental compaction testing is evaluated on Instron Universal Testing System equipped with a 50 kN load cell using Natoli 10 mm flat round punches and die for material compression. The profiles are generated at 5, 10, and 15 kN with a target tablet weight of 300 mg for each compact. The three compacts are made at each pressure set point while the Instron is traveling at 50 mm/minute. The compacts final weight is measured on a balance. The tablet's diameter and thickness is measured using Mitutoyo Thickness Gauge and hardness testing is completed on a Vankel Hardness tester using axially breakage.
# [4] = Equilibrium solubility of crystalline solid forms in simulated fluids (SGF, FaSSIF, FedSSIF); conditions: for solubility thermodynamic at 24 h: thermodynamic from solid, room temperature
# Protocol: The purpose of this assay is to measure the solubility of certain solid forms of the present invention in comparison to 6,6-dimethyl-2-{2-[(1-methyl-1H-pyrazol-5-yl)amino]pyrimidin-4-yl}-5-[2-(morpholin-4-yl)ethyl]-5,6-dihydro-4H-thieno[2,3-c]pyrrol-4-one (free base). pKa Determination is performed using a UV-metric method. The sample is titrated in a fast-UV triple titration between pH 2-12 at a concentration of 31-19 μM under aqueous condition. Subsequently, the sample is titrated in three UV-metric titrations from pH 1.5-10 at a concentration of 30-27 μM with no precipitation and the observed pKa averages are reported.
# To determine the solubility of the three different crystal forms, a single aliquot of the test media (2 mL, see table 4) is added to an accurately weighed sample. Samples are mixed at room temperature for a period of 24 hours. If a solution is observed, more crystalline material is added and the suspension is slurried for at least 2 hours, after which, an aliquot is withdrawn, filtered through a 0.45 μm PTFE filter and characterized by HPLC using the following HPLC conditions: Column Waters)(Bridge Phenyl, 4.6×100 mm, 3.5 μm, mobile phase A is 0.% NH4OH in water, mobile phase B is MeOH, diluent is 75% ACN and 25% water, gradient is 50% A at time 0, 25% A at time 10-13 minutes, and 50% A at time 13.1 to 18 minutes with a flow rate of 0.9 mL/minute, a column temperature of 35° C., UV at 225 nM, an injection volume of 5 and autosampler at ambient temperature. The remaining solids are air dried prior to analysis by XRPD. One replicate from each sample has triplicate HPLC analysis. pH Measurement of the solution is performed using calibrated scientific pH equipment. […] The equilibrium solubility in simulated intestinal fluids of the free base (assumed crystalline) compared to the crystalline methanesulfonic acid dihydrate salt (Example 2) and 4-methylbenzenesulfonic acid salt (Example 3), (assumed crystalline) are shown in Table 4.
# [5] = Accelerated open-dish physical stability of prototype tablet (XRPD, HPLC)
# Protocol: as §1
Structure (SMILES),"Hygroscopicity, weight increase ([1]; 20% RH)","Hygroscopicity, weight increase ([1]; 60% RH)",Tensile ([3]; Pressure 64 MPa),Tensile ([3]; Pressure 127 MPa),Tensile ([3]; Pressure 191 MPa),pH of the solution in solubility test ([4]; FaSSIF),pH of the solution in solubility test ([4]; FedSSIF),pH of the solution in solubility test ([4]; SGF),"solubility thermodynamic at 24 h ([4]; fessif, FedSSIF)","solubility thermodynamic at 24 h ([4]; simulated gastric fluid, SGF)",solubility thermodynamic at 24 h ([4]; FaSSIF),other results
"CS(=O)(=O)O.Cn1nccc1Nc1nccc(-c2cc3c(s2)C(C)(C)N(CCN2CCOCC2)C3=O)n1 [Example 1, 6,6-Dimethyl-2-{2-[(1-methyl-1H-pyrazol-5-yl)amino]pyrimidin-4-yl}-5-[2-(morpholin-4-yl)ethyl]-5,6-dihydro-4H-thieno[2,3-c]pyrrol-4-one; methanesulfonic acid]",<0.1 wt %,<0.1 wt %,,,,,,,,,,"Hygroscopicity, weight increase ([1]; 90% RH): ~4 wt %"
"Cl.Cn1nccc1Nc1nccc(-c2cc3c(s2)C(C)(C)N(CCN2CCOCC2)C3=O)n1 [Example 4, 6,6-Dimethyl-2-{2-[(1-methyl-1H-pyrazol-5-yl)amino]pyrimidin-4-yl}-5-[2-(morpholin-4-yl)ethyl]-5,6-dihydro-4H-thieno[2,3-c]pyrrol-4-one; hydrochloride, reference compound]",~0.4 wt. % wt %,~6 wt %,,,,,,,,,,
OC[C@H]1O[C@@H](O[C@H]2[C@H](O)[C@@H](O)C(O)O[C@@H]2CO)[C@H](O)[C@@H](O)[C@H]1O (some centres unmarked) [Lactose Anhydrous],,,0.9687 MPa,,3.1671 MPa,,,,,,,Tensile ([3]; Pressure 128 MPa): 1.9119 MPa
OC[C@@H](O)[C@@H](O)[C@H](O)[C@H](O)CO [Mannitol SD200],,,0.4873 MPa,1.1966 MPa,2.1411 MPa,,,,,,,

# Second part, led by results:
"Hygroscopicity, weight increase ([1]; 20% RH)","Hygroscopicity, weight increase ([1]; 60% RH)",Tensile ([3]; Pressure 64 MPa),Tensile ([3]; Pressure 127 MPa),Tensile ([3]; Pressure 191 MPa),pH of the solution in solubility test ([4]; FaSSIF),pH of the solution in solubility test ([4]; FedSSIF),pH of the solution in solubility test ([4]; SGF),"solubility thermodynamic at 24 h ([4]; fessif, FedSSIF)","solubility thermodynamic at 24 h ([4]; simulated gastric fluid, SGF)",solubility thermodynamic at 24 h ([4]; FaSSIF),Structure (SMILES),other results
,,1.2034 MPa,2.1532 MPa,2.4082 MPa,5.33,5.09,2.62,> 20300 µg/mL,> 9700 µg/mL,> 19000 µg/mL,"CS(=O)(=O)O.Cn1nccc1Nc1nccc(-c2cc3c(s2)C(C)(C)N(CCN2CCOCC2)C3=O)n1 [Example 2, 6,6-Dimethyl-2-{2-[(1-methyl-1H-pyrazol-5-yl)amino]pyrimidin-4-yl}-5-[2-(morpholin-4-yl)ethyl]-5,6-dihydro-4H-thieno[2,3-c]pyrrol-4-one; methanesulfonic acid dihydrate]","hygroscopicity profile for drug product manufacturing processes [1]: preferred hygroscopicity profiles; Hygroscopicity, weight increase ([1]; 90% RH, dihydrate): <0.1 wt % increase; compressibility [2]: improved; powder flowability [2]: improved; sticking to tableting tools [2]: reduced sticking; compaction properties compared with excipients ([3]; versus mannitol SD200 and Lactose Anhydrous): in range with excipients; physical stability with respect to solution mediated form conversion ([4]; FaSSIF and FedSSIF): physically stable; solubility compared to the free base ([4]; FaSSIF and FedSSIF): higher solubility; Physical stability in prototype tablet ([5]; 40° C./11% RH, 7 days): Stable; Physical stability in prototype tablet ([5]; 40° C./11% RH, 14 days): Stable; Physical stability in prototype tablet ([5]; 40° C./75% RH, 7 days): Stable; Physical stability in prototype tablet ([5]; 40° C./75% RH, 14 days): Stable; Physical stability in prototype tablet ([5]; 40° C./75% RH, 30 days): Stable; Physical stability in prototype tablet ([5]; 50° C./22% RH, 7 days): Stable; Physical stability in prototype tablet ([5]; 50° C./22% RH, 14 days): Stable; Physical stability in prototype tablet ([5]; 50° C./22% RH, 30 days): Stable; Physical stability in prototype tablet ([5]; 50° C./50% RH, 7 days): Stable; Physical stability in prototype tablet ([5]; 50° C./50% RH, 14 days): Stable; Physical stability in prototype tablet ([5]; 50° C./50% RH, 30 days): Stable"
<0.1 wt %,~0.2 wt %,,,,5.44,5.04,2.46,13500 µg/mL,7080 µg/mL,12200 µg/mL,"Cc1ccc(S(=O)(=O)O)cc1.Cn1nccc1Nc1nccc(-c2cc3c(s2)C(C)(C)N(CCN2CCOCC2)C3=O)n1 [Example 3, 6,6-Dimethyl-2-{2-[(1-methyl-1H-pyrazol-5-yl)amino]pyrimidin-4-yl}-5-[2-(morpholin-4-yl)ethyl]-5,6-dihydro-4H-thieno[2,3-c]pyrrol-4-one; 4-methylbenzenesulfonic acid]","hygroscopicity profile for drug product manufacturing processes [1]: preferred hygroscopicity profiles; Hygroscopicity, weight increase ([1]; 90% RH): ~0.5 wt. % increase wt %; solubility compared to the free base ([4]; FaSSIF and FedSSIF): higher solubility"
,,0.5415 MPa,1.0491 MPa,1.6394 MPa,6.70,5.36,5.05,5650 µg/mL,3700 µg/mL,130 µg/mL,"Cn1nccc1Nc1nccc(-c2cc3c(s2)C(C)(C)N(CCN2CCOCC2)C3=O)n1 [Free base, 6,6-Dimethyl-2-{2-[(1-methyl-1H-pyrazol-5-yl)amino]pyrimidin-4-yl}-5-[2-(morpholin-4-yl)ethyl]-5,6-dihydro-4H-thieno[2,3-c]pyrrol-4-one, reference compound]",

# Source: US20220153750A1, “SALTS OF 5,6-DIHYDRO-4H-THIENO[2,3-C]PYRROL-4-ONE COMPOUND AS ERK INHIBITORS” (Eli Lilly and Company, priority 2019, published 2022)
